The subject of data set [1] is reference E. coli ATCC 25922. As to the kind of experiment: Bulk pheno-molecular AST by 16S rRNA hybridization detection. Format: cell-based. From the text: (§1) We note that we can achieve preliminary pheno-molecular AST by directly detecting PNA-to-16S rRNA hybridization in the bulk format via the LIF detector, though only after relatively lengthy antibiotic exposure. […] We then determined the relative fluorescence intensity—the ratio between the fluorescence intensities of the gentamicin-dosed cells and the gentamicin-free cells—for both strains for each culture duration.

The subject of data set [2] is multi-drug resistant E. coli ATCC BAA 2471. Described as above. Format: cell-based. As to conditions: gentamicin 8 μg/mL, 20 μL bulk, 0-120 min at 37° C., EC PNA probe.
From the text: as §1

The test system of data set [3] is reference E. coli. As to the kind of experiment: In-droplet single-cell 16S rRNA AST in spiked urine. The format is cell-based. The following applies: gentamicin 8 μg/mL, urine with 2×MH broth, 37° C. for 30, 15, 10 or 5 min.
The subject of data set [4] is multi-drug resistant strain of E. coli (ATCC BAA 2471). The following applies: cited from earlier work.
The test system of data set [5] is E. coli cells. Description: In-droplet single-cell 16S rRNA AST in MH broth. Format: cell-based. From the text: A custom MATLAB program was developed for analyzing the raw fluorescence intensity data acquired from the APD. From the fluorescence intensity time trace of each experimental run, the program looks for individual droplets by quantifying peak widths and peak heights. Once droplet position and fluorescence intensity were identified for all droplets in a sample, the intensities were plotted as a histogram with ˜150 bins. Resulting histograms typically follow a bimodal distribution, and in order to classify the respective subpopulations, the first droplet histogram peak (“empty droplets”) were fitted with a Gaussian curve. Based on the fitted curve, the mean intensity of the empty droplet population as well as the standard deviation were calculated. All droplets whose intensities were 5 standard deviations above the empty droplet mean intensity were counted as bacteria-containing “positive droplets.” Signal to background ratios were calculated by dividing the mean intensity of positive droplets by the mean intensity of empty droplets.
We first co-encapsulated the EC probe and E. coli cells, which were spiked into Mueller-Hinton broth (MH), into picoliter droplets. […]

Data set [6] has as its system multi-drug resistant E. coli. As to the kind of experiment: In-droplet single-cell 16S rRNA AST in spiked urine. Format: cell-based. The following applies: gentamicin 8 μg/mL, urine with 2×MH broth, 37° C. for 30, 15, 10 or 5 min. On the procedure:
We next sought to minimize the culture/antibiotic exposure time for assessing antimicrobial susceptibility in urine. We separately digitized reference and multi-drug resistant E. coli-spiked urine samples, each along with 2×MH broth and EC PNA probes in droplets without and with gentamicin (bactericidal concentration of 8 μg/mL). Each gentamicin-free and gentamicin-dosed droplet group pair was then incubated at 37° C. for 30, 15, 10, or 5 min, followed by lysis, hybridization, and LIF detection (FIG. 13B). Longer bacterial culture result in higher production of 16S rRNA in gentamicin-free bacterial cells and therefore increased positive droplet frequencies. […] The effect of gentamicin on the two strains can be differentiated after as short as 10 min culture/antibiotic exposure, the minimum time at which there is no overlap between the error envelopes around the normalized positive droplet populations. […] As a result, we achieve assessment of antimicrobial susceptibility faster than the average replication time of an E. coli cell, a feat that ultimately paves the way for integrating molecular ID and AST to well under 30 min.
Finally, we investigated the utility of our single-cell 16S rRNA-based phenomolecular AST approach against 3 clinically important antibiotics. […]. […]

Data set [7] concerns E. coli ATCC 25922 16S rRNA. Description: Bulk PNA probe hybridization assay in urine, LIF detection. The following applies: ~10^9 CFU/mL E. coli ATCC 25922 spiked in urine; 2 min 95° C. lysis, 30 min 60° C. hybridization. Format: binding. From the text:
(§2) PNA probes were designed to target specific regions in the 16S rRNA for organisms belonging to the Enterobacterales (EB) order, the E. coli and P. mirabilis species (EC and PM), and the eubacterial kingdom (UNI), based on previous work (52, 72) (Table 1). The EB, EC, and PM probes were labeled with a FAM fluorophore, whereas the universal probe was labeled with an Alexa546 fluorophore. For each PNA probe, a short complementary DNA quencher was designed labeled with an Iowa Black® dark quencher. All probes were synthesized by PNA Bio (Newbury Park, CA), and all DNA quencher strands were synthesized by Integrated DNA Technologies (San Diego, CA). Probes and quenchers were stored in a custom hybridization buffer consisting of 50 mM NaCl, 25 mM Tris-HCl pH 8.0, and 0.5% polyvinylpyrrolidone (PVP) at −20° C. PVP is included to reduce the likelihood of probes being adsorbed to or retained by the walls of the PDMS devices. Prior to each experiment, individual aliquots of PNA probes were first thawed at 60° C. for 10 min to ensure full dissolution of the PNA stock into the hybridization buffer. For both bulk-based and droplet experiments, 200 nM PNA probes were mixed with 600 nM of the corresponding quencher in the custom hybridization buffer, and this solution was either mixed in bulk or co-encapsulated into droplets at a 1:1 ratio along with bacteria-containing urine and/or MH suspensions. An appropriate dosage of antibiotics was included in this mixture if required for the experiment.
(§3) We first verified that the probes can specifically detect target bacteria spiked into urine. […] We spiked ˜10^9 CFU/mL (equivalent to 1 cell in a ˜1 pL droplet) of standard reference strains of E. coli ATCC 25922, P. mirabilis ATCC 12453, K. pneumoniae ATCC BAA 1705, and P. aeruginosa ATCC 27853 into a mixture of culture-negative (i.e., blank) urine samples and hybridization buffer with each PNA probe. Each sample was subjected to 2 min of thermal lysis at 95° C. and 30 min of hybridization at 60° C., and then detected at room temperature within a 10 μm-wide microfluidic detection channel by our 2-color LIF detector (FIG. 6).

Data set [8] is described as follows: Tm of designed PNA probes. The format is physicochemical.
From the text: as §2, with “An appropriate dosage of antibiotics was included in this mixture if required for the experiment.” left out

The test system of data set [9] is uropathogenic E. coli. As to conditions: Baltimore, USA; cited from earlier work.
Data set [10] has as its system P. mirabilis ATCC 12453 16S rRNA. Description: Bulk PNA probe hybridization assay in urine, LIF detection. The format is binding. As to conditions: ~10^9 CFU/mL P. mirabilis ATCC 12453 spiked in urine; 2 min 95° C. lysis, 30 min 60° C. hybridization.
From the text: as §2, §3

Data set [11] concerns P. aeruginosa ATCC 27853 16S rRNA. The description is as above. The format is binding. As to conditions: ~10^9 CFU/mL P. aeruginosa ATCC 27853 spiked in urine; 2 min 95° C. lysis, 30 min 60° C. hybridization.
From the text: as §2, §3

For data set [12], the system named is K. pneumoniae ATCC BAA 1705 16S rRNA. The description is as above. The format is binding. As to conditions: ~10^9 CFU/mL K. pneumoniae ATCC BAA 1705 spiked in urine; 2 min 95° C. lysis, 30 min 60° C. hybridization.
From the text: as §2, §3

“And” between values parts separate entries of the source, which are not always exact repeats. Identical values can stand only once. {FAM-O} = FAM dye attached through an O linker at the PNA N-terminus; {IABk} = Iowa Black quencher Where only a bound is given, the exact number is not on record here.

gentamicin: the “culture/antibiotic exposure needed to see or differentiate the effect on susceptible vs resistant E. coli” value in data set [1] (bulk format, vs multi-drug resistant E. coli BAA 2471) was > 90 min and 90 min. Also, the “relative fluorescence intensity (gentamicin-dosed cells / gentamicin-free cells)” value in data set [1] (gentamicin 8 μg/mL, 20 μL bulk, 0-120 min at 37° C., EC PNA probe) was “significantly lower relative fluorescence intensities”; in data set [2] it was roughly 1. The “normalized positive droplet population” value in data set [3] was “decreasing normalized positive droplet population over increasing culture times”; in [6], “comparatively higher and relatively unchanging normalized positive droplet population”. Also, the “reported resistance of the strain” value in data set [4] is given as “resistant”. In addition, the “normalized positive droplet population versus antibiotic concentration” value in data set [5] (E. coli in MH broth, droplets) is on record as “decreases as the concentration of gentamicin increases”. Besides, the “frequency of positive droplets” value in data set [5] (gentamicin 128 μg/mL, 30 min culture/antibiotic exposure, MH broth, 4×10^7 CFU/mL E. coli, no-antibiotic control 7.70%) worked out at 3.12%.
Regarding “EC probe: FAM-labeled PNA probe FAM-O-TCAATGAGCAAAGGT-KK targeting E. coli 16S rRNA, with Iowa Black DNA quencher IABk-AGTTACTCGT (chain 1: all peptide nucleic acid (PNA), 5' {FAM-O}; chain 2: DNA, 5' {IABk}, backbone and methylation of C not given here; PNA carries two C-terminal lysines)”, the “probe fluorescence signal in the presence of target bacteria over blank urine background” value in [7] is recorded as “significantly higher signal”. Further, the Tm in data set [8] was found to be 76.3 °C.
As to `CC1(C)S[C@@H]2[C@H](NC(=O)[C@H](N)c3ccccc3)C(=O)N2[C@H]1C(=O)O` [ampicillin], the “reported resistance of the strain” value in [4] is given as “resistant”.
In the case of `O=C(O)c1cn(C2CC2)c2cc(N3CCNCC3)c(F)cc2c1=O` [ciprofloxacin], the resistance rate in data set [9] is reported as no more than 31%. In addition, the “reported resistance of the strain” value in data set [4] is listed as “resistant”.
Consider “UNI probe: Alexa546-labeled pan-bacteria PNA probe GCTGCCTCCCGTAGGA-K-Alexa546 targeting eubacterial 16S rRNA, with DNA quencher GGAGGGCATCCT-IABk (PNA, lysine-Alexa546, DNA quencher strand, chemistry not fully specified)”, for which the “probe fluorescence signal in the presence of target bacteria over blank urine background” value in [7], in [10], in data set [11] and in data set [12] was “successfully detects” each time. Moreover, the Tm in [8] came to 80.5 °C.

(Values after patent US20240271226A1, “METHODS OF PATHOGEN IDENTIFICATION AND ANTIMICROBIAL SUSCEPTIBILITY TESTING” (priority 2020, published 2024).)
